Reference: patent US7388025B2, “3-aryl-isoxazole-4-carbonyl-benzofuran derivatives” (Hoffman-La Roche Inc., priority 2005, dated 2008)

Molecular target: T1, human GABA A receptor α5β3γ2 (Homo sapiens, UniProt P18507+P31644)
T1 construct: expressed in transfected cells; host or cells: HEK293 cells, transiently transfected; membranes prepared from them
Assay: [3H]flumazenil competition binding, HEK293 cells expressing human GABA A α5β3γ2 receptors
Details: human α5β3γ2 in HEK293 (transiently transfected), 0.5 nM [3H]flumazenil, mean of two determinations; read-out: Ki[nM] hα5
Description: Membrane Preparation and Binding Assay
The affinity of compounds at GABA A receptor subtypes was measured by competition for [3H]flumazenil (85 Ci/mmol; Roche) binding to HEK293 cells expressing rat (stably transfected) or human (transiently transfected) receptors of composition α1β3γ2, α2β3γ2, α3β3γ2 and α5β3γ2.
Cell pellets were suspended in Krebs-tris buffer (4.8 mM KCl, 1.2 mM CaCl2, 1.2 mM MgCl2, 120 mM NaCl, 15 mM Tris; pH 7.5; binding assay buffer), homogenized by polytron for ca. 20 sec on ice and centrifuged for 60 min at 4° C. (50000 g; Sorvall, rotor: SM24=20000 rpm). The cell pellets were resuspended in Krebs-tris buffer and homogenized by polytron for ca. 15 sec on ice. Protein was measured (Bradford method, Bio-Rad) and aliquots of 1 mL were prepared and stored at −80° C.
Radioligand binding assays were carried out in a volume of […] (96-well plates) which contained […] of cell memebranes, [3H]flumazenil at a concentration of 1 nM for α1, α2, α3 subunits and 0.5 nM for α5 subunits and the test compound in the range of […]. Nonspecific binding was defined by 10^−5 M diazepam and typically represented less than 5% of the total binding. Assays were incubated to equilibrium for 1 hour at 4° C. and harvested onto GF/C uni-filters (Packard) by filtration using a Packard harvester and washing with ice-cold wash buffer (50 mM Tris; pH 7.5). After drying, filter-retained radioactivity was detected by liquid scintillation counting. Ki values were calculated using Excel-Fit (Microsoft) and are the means of two determinations.

- Ki: 1.4 nM
Substance: (5-Methoxy-benzofuran-2-yl)-(5-methyl-3-phenyl-isoxazol-4-yl)-methanone [Example 21]
